{"source": "patent US7388007B2", "about": "“Gamma-lactams as beta-secretase inhibitors” (Bristol-Myers Squibb Company, priority 2004, dated 2008)", "data": [{"biological_target": "T1, BACE1 enzyme (Homo sapiens, UniProt P56817)", "T1 construct": "The HEK293-9B.A1 cell line, which overexpresses the BACE1 enzyme, was derived from HEK293 cells; endogenous in cells; washed 48,000 x g membrane pellet / cell homogenate", "T1 sequence (P56817 46-501)": "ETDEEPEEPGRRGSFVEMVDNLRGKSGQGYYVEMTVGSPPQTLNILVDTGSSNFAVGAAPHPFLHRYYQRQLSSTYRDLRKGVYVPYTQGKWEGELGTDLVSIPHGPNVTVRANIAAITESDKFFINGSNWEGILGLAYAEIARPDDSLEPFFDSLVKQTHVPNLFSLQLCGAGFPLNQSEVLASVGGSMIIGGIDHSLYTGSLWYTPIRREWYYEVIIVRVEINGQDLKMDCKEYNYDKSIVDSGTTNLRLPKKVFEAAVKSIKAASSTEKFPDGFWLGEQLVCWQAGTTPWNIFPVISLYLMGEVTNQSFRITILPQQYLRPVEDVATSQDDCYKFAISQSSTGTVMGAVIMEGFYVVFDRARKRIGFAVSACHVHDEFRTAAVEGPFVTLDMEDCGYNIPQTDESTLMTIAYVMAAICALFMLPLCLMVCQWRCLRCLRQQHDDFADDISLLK", "assay": "Radioligand displacement assay with a radiolabeled BACE inhibitor on HEK293-9B.A1 cell homogenate", "type": "binding", "conditions": "displacement of 1 nM tritiated radioligand, HEK293-9B.A1 homogenate, pH 5.0, 1.5 hr at 25° C.; read-out: Activity Rating (based on IC50 values)", "from_the_text": "There are a number of methods by which inhibitors of the BACE enzyme can be identified experimentally. The enzyme can be obtained from membrane samples from natural tissues or cultured cells or can be expressed recombinantly in a host cell by well known methods of molecular biology. The whole enzyme or a portion thereof can be expressed, for example, in bacterial, insect or mammalian cells to obtain a catalytically active enzyme species. The enzymatic activity and/or ligand binding capability of the enzyme can be assessed within these membrane samples, or the enzyme can be purified to varying extents. As an illustrative example, the nucleic acid sequence encoding the pro and catalytic domains of human BACE can be appended on the 5′ end with an untranslated and signal sequence from the gene for acetylcholinesterase, and on the 3′ end with a sequence encoding a poly-histidine tag. This cDNA can then be expressed in Drosophila melanogaster S2 cells in which the signal and pro sequences of the transcribed/translated protein are removed by cellular proteases and the catalytic domain, appended by a C-terminal poly-histidine tag, is secreted out into the cellular medium. The enzyme can then be purified from the culture medium by nickel affinity chromatography by methods well known to those trained in the art [Mallender, W. et al., (2001) “Characterization of recombinant, soluble beta-secretase from an insect cell expression system.” Mol. Pharmacol. 59: 619-626]. Similar strategies for expressing and purifying various forms of BACE in bacterial, mammalian and other cell types would be known to one skilled in the art. A preferred method for determining the potency of a test compound in binding to the BACE enzyme is by moitoring the displacement of a suitable radioligand.\nRadioligand displacement assays with a radiolabeled BACE inhibitor (WO 2004 013098, compound 3, where the methoxy group is substituted for C(^3H)3) were carried out using standard methods (Keen, M. (1999) in Receptor Binding Techniques (Walker, J. M. ed) p. 106 Humana Press, Totowa, N.J.). The HEK293-9B.A1 cell line, which overexpresses the BACE1 enzyme, was derived from HEK293 cells (Simmons, N. L. (1990) A cultured human renal epithelioid cell line responsive to vasoactive intestinal peptide. Exp. Physiol. 75:309-19.) by RAGE™ (Harrington, J. J. et al. (2001) Creation of genome-wide protein expression libraries using random activation of gene expression. Nat. Biotechnol. 19:440-5; U.S. Pat. Nos. 6,410,266 and 6,361,972). T225 flask cultures of HEK293-9B.A1 were grown to 80% confluency in DMEM supplemented with 2 mM L-glutamine, 10 μg/ml penecillin, 10 μg/ml streptomycin, 3 μg/ml puromycin, 100 nM methotrexate, and 10% fetal bovine serum (Invitrogen, Carlsbad, Calif.), harvested, and resuspended at 2×10^8 cells per 10 ml of lysis buffer consisting of 50 mM HEPES pH 7.0 containing a protease inhibitor cocktail of AEBSF 104 μM, aprotinin 80 nM, leupeptin 2 μM, bestatin 4 μM, pepstatin A 1.5 μM, and E-64 1.4 μM (0.1% of protease inhibitor cocktail P8340, Sigma-Aldrich, St. Louis, Mo.) at 4° C. The resuspended cells were homogenized using a Polytron (Brinkman, Westbury, N.Y.) at setting 6 for 10 sec., then centrifuged at 48,000×g for 10 min. The resulting pellet was washed by repeating the resuspension, homogenization and centrifugation steps. […]", "units": {"IC50": "nM"}, "values": [{"smiles": "CCCO[C@H]1CN[C@@H]([C@@H](O)[C@H](Cc2cc(F)cc(F)c2)NC(=O)[C@H](CCc2ccccc2)N2CC[C@](NC(C)=O)([C@@H](C)CC)C2=O)C1", "note": "(stereo in doubt) [Example 2, (S)-2-((R)-3-acetamido-3-secbutyl-2-oxopyrrolidin-1-yl)-N-((1R,2S)-3-(3,5-difluorophenyl)-1-hydroxy-1-((2R,4R)-4-propoxypyrrolidin-2-yl)propan-2-yl)-4-phenylbutanamide]", "IC50": "< 100"}, {"smiles": "CCC(C)[C@@]1(NC(C)=O)CCN([C@@H](CCc2ccccc2)C(=O)N[C@@H](Cc2cc(F)cc(F)c2)[C@H](O)[C@H]2CCCCN2)C1=O", "note": "(stereo in doubt) [Example 8, (S)-2-((S)-3-acetamido-3-((R)-sec-butyl)-2-oxopyrrolidin-1-yl)-N-((1R,2S)-3-(3,5-difluorophenyl)-1-hydroxy-1-((R)-piperidin-2-yl)propan-2-yl)-4-phenylbutanamide]", "IC50": "< 100"}, {"smiles": "CCCOC1CN[C@@H]([C@@H](O)C(Cc2cc(F)cc(F)c2)NC(=O)[C@H](C)N2CC[C@H](CC(C)C)C2=O)C1", "note": "(some centres unmarked) [Example 7]", "IC50": "100 to 1000"}, {"smiles": "CC[C@@H](C)[C@@]1(NC(C)=O)CCN([C@@H](CCc2ccccc2)C(=O)N[C@@H](Cc2cc(F)cc(F)c2)[C@H](O)[C@H]2C[C@H](O)CN2)C1=O", "note": "[Example 15, (S)-2-((S)-3-acetamido-3-((R)-sec-butyl)-2-oxopyrrolidin-1-yl)-N-((1R,2S)-3-(3,5-difluorophenyl)-1-hydroxy-1-((2R,4S)-4-hydroxypyrrolidin-2-yl)propan-2-yl)-4-phenylbutanamide]", "IC50": "< 100"}, {"smiles": "CCCS(=O)(=O)[C@H]1CN[C@@H]([C@@H](O)[C@H](Cc2ccccc2)NC(=O)[C@H](CCc2ccccc2)N2CC[C@](NC(C)=O)([C@H](C)CC)C2=O)C1", "note": "[Example 22, (S)-2-((S)-3-acetamido-3-((R)-sec-butyl)-2-oxopyrrolidin-1-yl)-N-((1R,2S)-1-hydroxy-3-phenyl-1-((2R,4R)-4-(propylsulfonyl)pyrrolidin-2-yl)propan-2-yl)-4-phenylbutanamide]", "IC50": "< 100"}]}]}
